# From US6656709B1, “Methods of increasing the production of cobalamins using cob gene expression” (priority 1990, dated 2003)
# Columns and labels:
# [1] = test system: crude extract of strain SC510 Rif^r; test: Enzymatic chelation with cobalt in crude extract of strain SC510 Rif^r; type: biochemical, Pseudomonas denitrificans; conditions: 7 mM ATP, 200 μM CoCl2
# Method: A crude extract of strain SC510 Rif^r is obtained by sonication of wet cells (10 g) in 0.2 M Tris-HCl buffer pH 8.0 (20 ml), followed by removal of the cell debris by centrifugation for 1 h at 50,000×g. Proteins (1000 mg) of this extract are incubated for 1 h at 30° C. with carbon-14-labelled hydrogenobyrinic acid diamide (32 nmol; 50 μCi/μmol) in 0.2 M Tris-HCl buffer pH 8.0 (40 ml) containing 7 mM ATP and 200 μM CoCl2. The reaction is stopped by adding 1 M KH2PO4 (7.5 ml) and 0.3 M KCN (6 ml), followed by heating for 10 min at 80° C. […] To confirm that the product is indeed cobyrinic acid a,c-diamide, the product is purified by HPLC and then esterified in methanol containing 5% of sulphuric acid (18 h, 20° C.). […] It should be noted that, under similar incubation conditions in which the radioactive labelling is introduced, not into the hydrogenobyrinic acid a,c-diamide, but into the cobalt (using cobalt-57), cobalt-57-labelled cobyrinic acid a,c-diamide is biosynthesised and the same conclusions could be drawn.
# [2] = target: T1, Methanobacterium ivanovii SUMT (Methanobacterium ivanovii, UniProt P29564); test: Catalytic properties of purified M. ivanovii SUMT; type: biochemical
# T1 construct: endogenous in cells; host or cells: Methanobacterium ivanovii DSM2611 (enzyme purified to homogeneity from the natural organism)
# T1 sequence (P29564 2-231 limits assumed): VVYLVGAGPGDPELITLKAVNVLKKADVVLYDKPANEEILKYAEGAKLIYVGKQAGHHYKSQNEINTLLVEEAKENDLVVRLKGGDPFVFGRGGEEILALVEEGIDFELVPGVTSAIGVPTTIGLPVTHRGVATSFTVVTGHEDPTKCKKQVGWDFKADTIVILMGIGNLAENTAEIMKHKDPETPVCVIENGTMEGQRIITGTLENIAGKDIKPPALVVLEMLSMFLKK
# Method: Methanobacterium ivanovii strain DSM2611 is cultured as described (Souillard et al., 1988). Wet cells (12 g) are obtained. The latter are resuspended in 0.1 M Tris-HCl buffer pH 7.6 (80 ml) containing 5 mM DTT and 1 mM EDTA, and sonicated for 1 h 30 min at 4° C. and then centrifuged for 1 h at 50,000 g. Free tetrapyrrole compounds are then cleared from the extract by passage through a small DEAE-Sephadex A25 column set up in the same buffer. The proteins precipitating at between 55 and 75% ammonium sulphate saturation are solubilised in a 0.1 M Tris-HCl pH 7.5, 0.5 mM DTT, 1.7 M ammonium sulphate buffer and injected onto a Phenyl-Superose HR 10/10 (Pharmacia France/SA) column eluted with a decreasing gradient (1.7 M to 0 M with respect to ammonium sulphate). The active fractions are passed through a Sephadex G-25 column equilibrated with 0.1 M Tris-HCl pH 7.5, 0.5 mM DTT, 25% glycerol buffer (buffer A), then injected onto a Mono Q HR 5/5 (Pharmacia France SA) column equilibrated with buffer A and eluted with a KCl gradient of 0 to 0.3 M; this step is repeated a second time under the same conditions. Gel permeation chromatography of the active fraction of the preceding step on Bio-Sil TSK-250 (BioRad France SA) enables a protein which is homogeneous in SDS-PAGE and in RP-HPLC (C-18 pBondapak) to be obtained. The different steps of purification, with their yield, as well as their purification factor, are described in the table below.
# As shown in this table, the total purification factor is more than 4,500. Some properties of the pure enzyme have been studied according to methods already described (Blanche et al., 1989). This enzyme does indeed have SUMT activity, i.e. it does indeed catalyse the SAM-dependant transfer of two methyl groups at C-2 and at C-7 of uro'gen III.
# The Vmax of M. ivanovii SUMT was determined. It is 1537 U/mg of proteins. This value is greater than that found for P. denitrificans SUMT, already determined under optimal conditions for the reaction (taking account of its inhibition by uro'gen III), 489 U/mg of proteins (Blanche et al., 1989).
# [3] = target: Pseudomonas denitrificans SUMT (Sinorhizobium sp, UniProt P21631); conditions: cited from earlier work
# Sequence of Pseudomonas denitrificans SUMT (P21631 whole entry): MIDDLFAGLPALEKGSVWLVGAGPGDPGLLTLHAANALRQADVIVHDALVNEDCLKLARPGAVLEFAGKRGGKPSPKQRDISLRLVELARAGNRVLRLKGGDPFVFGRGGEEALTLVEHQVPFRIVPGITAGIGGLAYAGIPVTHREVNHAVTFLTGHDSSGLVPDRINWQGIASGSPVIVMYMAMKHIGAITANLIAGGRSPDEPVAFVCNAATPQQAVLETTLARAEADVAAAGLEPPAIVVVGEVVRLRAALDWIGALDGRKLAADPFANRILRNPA
Compound,substrate for enzymatic chelation with cobalt [1],inhibition by substrate ([2]; at concentrations below 20 μM),"Km ([2]; conditions of Blanche et al., 1989) [µM]",concentration above which inhibition by uro'gen III is shown [3]
C/C1=C2N=C(/C=C3\N/C(=C(/C)C4=NC(C)(C5N=C1C(C)(CCC(=O)O)C5CC(=O)O)C(C)(CC(=O)O)C4CCC(=O)O)C(C)(CC(=O)O)C3CCC(=O)O)C(C)(C)C/2CCC(=O)O (stereo not shown) [hydrogenobyrinic acid],not a substrate,–,–,–
uroporphyrinogen III [uro'gen III],–,does not show inhibition by substrate,0.052,above 2 μM
